Read-outs that look alike come from different tables or passages of the source. Where a SMILES comes first, the peptide text is derived from it. Bridges are numbered along the chain shown (N, C = ends). [ ]: non-standard residue; d: D form. The star is where a group is joined. hPhe(3,5-F2-4-CF3) = N[C@@H](CCc1cc(F)c(C(F)(F)F)c(F)c1)C(=O)O; NPrPhe(4-CF3) = CCCN[C@@H](Cc1ccc(C(F)(F)F)cc1)C(=O)O; NMeGly(cPent) = CN[C@H](C(=O)O)C1CCCC1; NMeD = CN[C@@H](CC(=O)O)C(=O)O; NMeL = CN[C@@H](CC(C)C)C(=O)O; αMeS = C[C@](N)(CO)C(=O)O; Morpholide = C1CN(*)CCO1; Sar = CNCC(=O)O
What was measured:
[1] = target: GDP-bound KRAS wild-type protein (Homo sapiens, UniProt P01116); test: Binding to KRAS by surface plasmon resonance (SPR), Single Cycle Kinetics; details: GDP-bound KRAS wild-type protein, read-out: KRAS KD
[2] = target: GDP-bound HRAS wild-type protein (Homo sapiens, UniProt P01112); test: Binding to HRAS by surface plasmon resonance (SPR), Single Cycle Kinetics
[3] = target: GDP-bound NRAS wild-type protein (Homo sapiens, UniProt P01111); test: Binding to NRAS by surface plasmon resonance (SPR), Single Cycle Kinetics
[4] = test system: human lung cancer strain NCI-H441;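 also: cell proliferation inhibition after four days measured by CellTiter-Glo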
[5] = SPR, Single Cycle Kinetics, 1:1 binding model
[6] = SPR, GDP-bound HRAS wild-type protein vs GDP-bound KRAS wild-type protein, KD ratio class
[7] = SPR, GDP-bound NRAS wild-type protein vs GDP-bound KRAS wild-type protein, KD ratio class
[8] = SPR, GDP-bound HRAS wild-type protein vs GDP-bound KRAS wild-type protein
[9] = SPR, GDP-bound NRAS wild-type protein vs GDP-bound KRAS wild-type protein
[10] = SPR Single Cycle Kinetics, 1:1 binding model

GDP-bound HRAS wild-type protein, sequence (P01112 whole entry): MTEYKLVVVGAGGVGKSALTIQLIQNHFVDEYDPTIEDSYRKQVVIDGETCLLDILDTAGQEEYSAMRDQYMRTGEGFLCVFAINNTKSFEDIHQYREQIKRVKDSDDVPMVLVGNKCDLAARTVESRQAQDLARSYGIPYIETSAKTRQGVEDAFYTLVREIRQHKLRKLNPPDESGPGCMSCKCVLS
GDP-bound KRAS wild-type protein, sequence (P01116 whole entry): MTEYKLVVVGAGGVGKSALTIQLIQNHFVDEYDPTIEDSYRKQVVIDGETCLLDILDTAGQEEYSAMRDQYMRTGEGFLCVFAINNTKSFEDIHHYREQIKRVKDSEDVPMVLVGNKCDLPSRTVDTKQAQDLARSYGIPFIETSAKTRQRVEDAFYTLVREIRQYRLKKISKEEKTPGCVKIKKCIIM
GDP-bound NRAS wild-type protein, sequence (P01111 whole entry): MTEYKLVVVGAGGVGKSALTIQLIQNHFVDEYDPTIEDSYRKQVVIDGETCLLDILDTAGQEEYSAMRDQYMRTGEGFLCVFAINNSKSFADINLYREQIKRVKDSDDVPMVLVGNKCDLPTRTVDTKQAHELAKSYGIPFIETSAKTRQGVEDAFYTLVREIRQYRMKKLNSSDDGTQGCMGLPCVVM

| Compound | IC50 [4] [nM] | Kd ([1]; SPR, Single Cycle Kinetics) [nM] | HRAS/KRAS (ratio of KD value for HRAS to KD value for KRAS) [2, 8] | NRAS/KRAS (ratio of KD value for NRAS to KD value for KRAS) [3, 9] | other results |
| --- | --- | --- | --- | --- | --- |
| CCO[C@@H]1C[C@H]2C(=O)NC3(CCC3)C(=O)N(C)[C@@H](C3CCCC3)C(=O)N(C)[C@H](C(=O)N3CCCC3)CC(=O)N(C)[C@@H](CC)C(=O)N[C@@H]([C@@H](C)CC)C(=O)N(C)CC(=O)N(C)[C@H]3C/C=C\CCN(C3=O)[C@@H](CC3CCCCC3)C(=O)N(C)CC(=O)N[C@@H](CCc3cc(F)c(C(F)(F)F)c(F)c3)C(=O)N2C1 [PP1443, (2S,8S,12R,14S,20S,23S,27S,30S,36S,38Z)-2-(cyclohexylmethyl)-20-cyclopentyl-8-[2-[3,5-difluoro-4-(trifluoromethyl)phenyl]ethyl]-12-ethoxy-27-ethyl-4,19,22,26,32,35-hexamethyl-30-[(1S)-1-methylpropyl]-23-(pyrrolidine-1-carbonyl)spiro[1,4,7,10,16,19,22,26,29,32,35-undecazatricyclo[34.5.1.0^10,14]dotetracont-38-ene-17,1′-cyclobutane]-3,6,9,15,18,21,25,28,31,34,42-undecone] | 34.8 |  |  |  | Kd [1, 5]: 0.15 nM; HRAS/KRAS (ratio of KD value for HRAS to KD value for KRAS) [2, 6]: A (a compound having 10 or more and less than 20 is denoted as A); NRAS/KRAS (ratio of KD value for NRAS to KD value for KRAS) [3, 7]: AA (a compound having 20 or more is denoted as AA) |
| CCO[C@@H]1C[C@H]2C(=O)NC3(CCC3)C(=O)N(C)[C@@H](C(CC)CC)C(=O)N(C)[C@H](C(=O)N(C)C)CC(=O)N(C)[C@@H](CC(C)C)C(=O)N[C@@H]([C@@H](C)CC)C(=O)N(C)CC(=O)N(C)[C@H]3C/C=C\CCN(C3=O)[C@@H](Cc3ccc(C(F)(F)F)cc3)C(=O)N(C)CC(=O)N[C@@H](CCc3cc(F)c(C(F)(F)F)c(F)c3)C(=O)N2C1 [PP1201] | 9.7 | 0.17 | A (a compound having 10 or more and less than 20 is denoted as A) | AA (a compound having 20 or more is denoted as AA) |  |
| CCCCN1CC(=O)NC2(CCC2)C(=O)N(C)[C@@H](C2CCCC2)C(=O)N(C)[C@H](C(=O)N(C)C)CC(=O)N(C)[C@@H](CC)C(=O)N[C@@H]([C@@H](C)CC)C(=O)N(C)CC(=O)N(C)[C@H]2C/C=C\CCN(C2=O)[C@@H](Cc2ccc(C(F)(F)F)cc2)C(=O)N(C)CC(=O)N[C@@H](CCc2cc(F)c(C(F)(F)F)c(F)c2)C1=O [PP1142] | 322 | 0.65 | A (a compound having 10 or more and less than 20 is denoted as A) | A (a compound having 10 or more and less than 20 is denoted as A) |  |
| CCCN1C(=O)CN(C)C(=O)CN(C)C(=O)[C@H]([C@@H](C)CC)NC(=O)[C@H](CC(C)C)N(C)C(=O)C[C@@H](C(=O)N2CCOCC2)N(C)C(=O)[C@H](C2CCCC2)N(C)C(=O)[C@](C)(COC)NC(=O)[C@@H]2CCCN2C(=O)[C@H](CCc2cc(F)c(C(F)(F)F)c(F)c2)NC(=O)CN(C)C(=O)[C@@H]1Cc1ccc(C(F)(F)F)cc1 [PP0762] ([NMeL]I[Sar][Sar][NPrPhe(4-CF3)][Sar][hPhe(3,5-F2-4-CF3)]P[αMeS](Me)[NMeGly(cPent)][NMeD]-Morpholide; lactam N-11) | 30.1 |  |  |  | Kd [1, 10]: 0.73 nM; HRAS/KRAS (ratio of KD value with respect to HRAS to KD value with respect to KRAS) [2, 8]: B (a compound having 3 or more and less than 10 is denoted as B); NRAS/KRAS (ratio of KD value with respect to NRAS to KD value with respect to KRAS) [3, 9]: B (a compound having 3 or more and less than 10 is denoted as B) |
| CCC[C@H]1C(=O)N[C@@H]([C@@H](C)CC)C(=O)N2C[C@@H](OC)C[C@H]2C(=O)N(C)[C@H]2C/C=C\CCN(C2=O)[C@@H](Cc2ccc(C)cc2)C(=O)N(C)CC(=O)N[C@@H](CCc2ccc(C(F)(F)F)c(OC)c2)C(=O)N2C[C@@H](C)C[C@H]2C(=O)NC2(CC(C)(C)C2)C(=O)N(C)[C@@H](C2CCCC2)C(=O)N(C)[C@H](C(=O)N(C)C)CC(=O)N1C [PP2388] | 22.9 | 0.33 | B (a compound having 3 or more and less than 10 is denoted as B) | A (a compound having 10 or more and less than 20 is denoted as A) |  |

More lines, main results first:

| IC50 [4] [nM] | Kd ([1]; SPR, Single Cycle Kinetics) [nM] | Compound | HRAS/KRAS (ratio of KD value for HRAS to KD value for KRAS) [2, 8] | NRAS/KRAS (ratio of KD value for NRAS to KD value for KRAS) [3, 9] | other results |
| --- | --- | --- | --- | --- | --- |
| 34.5 |  | CCO[C@@H]1C[C@H]2C(=O)NC3(CCC3)C(=O)N(C)[C@@H](C3CCCC3)C(=O)N(C)[C@H](C(=O)N(C)CCOC)CC(=O)N(C)[C@@H](CC3CC3)C(=O)N[C@@H]([C@@H](C)CC)C(=O)N(C)CC(=O)N(C)[C@H]3C/C=C\CCN(C3=O)[C@@H](Cc3ccc(C(F)(F)F)cc3)C(=O)N(C)CC(=O)N[C@@H](CCc3ccc(Cl)c(Cl)c3)C(=O)N2C1 [PP1329] |  |  | Kd [1, 5]: 0.24 nM; HRAS/KRAS (ratio of KD value for HRAS to KD value for KRAS) [2, 6]: A (a compound having 10 or more and less than 20 is denoted as A); NRAS/KRAS (ratio of KD value for NRAS to KD value for KRAS) [3, 7]: AA (a compound having 20 or more is denoted as AA) |
| 25.3 | 0.068 | CCO[C@@H]1C[C@H]2C(=O)NC3(CCC3)C(=O)N(C)[C@@H](C3CCCC3)C(=O)N(C)[C@H](C(=O)N(C)C)CC(=O)N(C)[C@@H](CCOC)C(=O)N[C@@H]([C@@H](C)CC)C(=O)N(C)CC(=O)N(C)[C@H]3CCCCCN(C3=O)[C@@H](Cc3ccc(F)cc3)C(=O)N(C)CC(=O)N[C@@H](CCc3cc(F)c(C(F)(F)F)c(F)c3)C(=O)N2C1 [PP1194] | B (a compound having 3 or more and less than 10 is denoted as B) | B (a compound having 3 or more and less than 10 is denoted as B) |  |
| 113 |  | CCC[C@H]1C(=O)N[C@@H](CC(C)C)C(=O)N(CCOC)CC(=O)N(C)[C@H]2C/C=C\CCN(C2=O)[C@@H](Cc2ccc(C)cc2)C(=O)N(C)CC(=O)N[C@@H](CCc2ccc(C(F)(F)F)c(OC)c2)C(=O)N2C[C@H](OCC)C[C@H]2C(=O)NC2(CC(C)(C)C2)C(=O)N(C)[C@@H](C2CCCC2)C(=O)N(C)[C@H](C(=O)N(C)C)CC(=O)N1C [PP2522] |  |  | Kd [1, 10]: 3.2 nM; HRAS/KRAS (ratio of KD value with respect to GDP-bound HRAS wild-type protein to KD value with respect to KRAS) ([2]; SPR KD ratio HRAS/KRAS, class symbols): B (a compound having 3 or more and less than 10 is denoted as B); NRAS/KRAS (ratio of KD value with respect to GDP-bound NRAS wild-type protein to KD value with respect to KRAS) ([3]; SPR KD ratio NRAS/KRAS, class symbols): B (a compound having 3 or more and less than 10 is denoted as B) |
| 13 | 0.056 | CCO[C@@H]1C[C@H]2C(=O)NC3(CCC3)C(=O)N(C)[C@@H](C3CCCC3)C(=O)N(C)[C@H](C(=O)N(C)C)CC(=O)N(C)[C@@H](CC(F)F)C(=O)N[C@@H]([C@@H](C)CC)C(=O)N(C)CC(=O)N(C)[C@H]3CCCCCN(C3=O)[C@@H](Cc3ccc(F)cc3)C(=O)N(C)CC(=O)N[C@@H](CCc3cc(F)c(C(F)(F)F)c(F)c3)C(=O)N2C1 [PP1191] | B (a compound having 3 or more and less than 10 is denoted as B) | A (a compound having 10 or more and less than 20 is denoted as A) |  |
| 8.3 | 4.5 | CCCOC[C@H]1C(=O)N[C@@H]([C@@H](C)CC)C(=O)N2CCC[C@H]2C(=O)N(C)[C@H]2C/C=C\CCN(C2=O)[C@@H](Cc2ccc(C)cc2)C(=O)N(C)CC(=O)N[C@@H](CCc2ccc(C(F)(F)F)c(OC)c2)C(=O)N2C[C@@H](C)C[C@H]2C(=O)NC2(CC(C)(C)C2)C(=O)N(C)[C@@H](C2CCCC2)C(=O)N(C)[C@H](C(=O)N(C)CC)CC(=O)N1C [PP2429] | B (a compound having 3 or more and less than 10 is denoted as B) | A (a compound having 10 or more and less than 20 is denoted as A) |  |

From US20240158446A1, “CYCLIC COMPOUND HAVING SELECTIVE INHIBITORY ACTION ON KRAS OVER HRAS AND NRAS” (CHUGAI SEIYAKU KABUSHIKI KAISHA, priority 2021, published 2024)
